Where two headings read alike, the source gives them in different places.
Tests used:
H1650 lung cancer cells [1] = tested on: H1650 lung cancer cells; parameters: % @ 20 μM: scale not given here; conditions: cited from earlier work; for IC50: examples up to number 80 taken from PCT WO2013/025882, read-out: IC50 (μM), Cell Viability Data
H1650 lung cancer cells [2] = test: Cell viability assay (MTT, IC50 determination); format: cell-based; conditions: Homo sapiens, NCI-H1650, 48 h after drug treatment, examples 100-103
Protocol: Cell Viability Assays (IC50 Determination)
Cell viability assays were performed according to Denizot, F. and R. Lang, Journal of Immunological Methods, 1986. 89(22): p. 271-277. H1650 lung cancer cells were plated at 150,000 cells per well in a 12 well plate. Twenty-four hours after plating, cells were treated as described with increasing concentrations of drug and control. Forty-eight hours after drug treatment, cells were treated with 100 μL of 3-(4,5-Dimethylthiazol-2-yl)-2,5-diphenyltetrazolium bromide (MTT) and incubated for 2 hours at 37 C. The MTT solution was subsequently replaced with 300 μl of n-propyl alcohol and re-aliquoted to a 96 well plates. Spectrophotometric analysis of each solution was performed using a 96 well plate reader at 600 nm in triplicate. The examples up to number 80 in Table 1 below are taken from PCT WO2013/025882, published 21 Feb. 2013. They illustrate biological activities of compounds that share a tricyclic scaffold.

EGFR-L858R/CCSP mice = test: In vivo lung cancer model (MRI tumor volume); conditions: 100 mg/kg i.p. every other day for two weeks; DMSO control 20% increase
Protocol: The in vivo lung cancer model is described in Politi et al., Genes Dev. Jun. 1, 2006 20: 1496-1510. EGFR-L858R/CCSP mice were fed doxycycline-impregnanted food pellets to induce tumor formation. After 8-12 weeks, mice were imaged in a Bruker 4.7T Biospec scanner to confirm lung nodule development. After tumor confirmation, the compound of Example 30 was prepared in DMSO (Sigma) and administered i.p. at 100 mg/kg every other day for two weeks. After treatment, the mice were re-imaged by MRI, and pre-treatment and post-treatment lung volumes were calculated by visible lung opacity present in each axial image using Osirix 4.1.1. DMSO control animals show a 20% increase in tumor volume over two week treatment period. Animals treated with the compound of Example 30 show a 60% decrease in tumor volume over two week treatment period.

[3] = tested on: BALB/c hearts transplanted into fully allogeneic B6 recipients; test: Heart allograft survival; format: in vivo, mice; conditions: 100 mg/kg i.p.; n=4; untreated rejected by day 8; p<0.05 vs control
Protocol: To test for a clinically relevant in vivo effect, BALB/c hearts were transplanted into fully allogeneic B6 recipients. While untreated animals rejected their grafts by day 8 n=4, the grafts in the mice treated with 100 mg/kg i.p. of Example 30 lasted 18 days n=4, p<0.05 vs control, a statistically and clinically significant effect.

CD4 naïve cells = test: Induction of Treg (Foxp3+) from naïve CD4 T cells; format: cell-based; conditions: control compounds, concentration not given; 3 days
Protocol: Example 30 has been tested for its ability to induce Treg from naïve CD4 T cells. […] Fifty thousand CD4 naïve cells (CD62Lhi,CD25 low, CD4 positive) were incubated with 2 ng/mL TGFβ, 1 ug/mL anti-CD3, 100 ng/mL IL-2, 50000 APCs per well and the compounds 10 μM, 5 μM and 2.5 μM concentrations. The cells were incubated for 3 days and then stained for CD4 and Foxp3 expression. Results were expressed as fold increase over the % induced in control (DMSO) wells (typically 20-25% Foxp3+). AKTi, a small molecule AKT inhibitor, was used as a positive control; it induced about a 4-fold increase. […] The effects of Example 30 on iTreg induction are amplified as the TGFβ concentration decreases.

IC50 (H1650 lung cancer cells [2])	Structure (SMILES)	IC50 (H1650 lung cancer cells [1]; MTT, 48 h after drug treatment)	other results
	O=S(=O)(NCCCN1c2ccccc2CCc2ccc(Cl)cc21)c1cnc(Cl)c(Br)c1 [Example 63, 5-Bromo-6-chloro-N-(3-(3-chloro-10,11-dihydro-5H-dibenzo[b,f]azepin-5-yl)propyl)pyridine-3-sulfonamide]		% @ 20 μM (H1650 lung cancer cells [1]; 20 μM, taken from PCT WO2013/025882): 65% @ 20
30 µM	O=S(=O)(NCCCN1c2ccccc2CCc2ncccc21)c1ccc(OC(F)(F)F)cc1 [Example 102, N-(3-(10,11-Dihydro-5H-benzo[b]pyrido[2,3-f]azepin-5-yl)propyl)-4-(trifluoromethoxy)benzenesulfonamide]		
	O=S(=O)(N[C@H]1CCC[C@H](N2c3ccccc3CCc3ccccc32)C1)c1ccc(OC(F)(F)F)cc1 (relative stereo) [Example 73 trans, trans-N-(3-(10,11-dihydro-5H-dibenzo[b,f]azepin-5-yl)cyclohexyl)-4-(trifluoromethoxy)benzenesulfonamide]	15 µM	
25 µM	O=S(=O)(NCCCN1c2ccccc2CCc2cccnc21)c1ccc(Cl)cc1 [Example 101, N-(3-(5H-Benzo[b]pyrido[3,2-f]azepin-11(6H)-yl)propyl)-4-chlorobenzenesulfonamide]		
30 µM	O=S(=O)(NCCCN1c2ccccc2CCc2ncccc21)c1ccc(Cl)cc1 [Example 103, 4-Chloro-N-(3-(10,11-dihydro-5H-benzo[b]pyrido[2,3-f]azepin-5-yl)propyl)benzenesulfonamide]		
	Cc1ccc(S(=O)(=O)NCCN2c3ccccc3Sc3ccc(Cl)cc32)cc1 [Example 18, N-(2-(2-chloro-10H-phenothiazin-10-yl)pethyl)4-methylbenzenesulfonamide]	24.4 µM	
	O=S(=O)(NCCCN1c2ccccc2CCc2ccc(Cl)cc21)c1cc(F)cc(F)c1 [Example 13, N-(3-(3-chloro-10,11-dihydro-5H-dibenzo[b,f]azepin-5-yl)propyl)-3,5-difluorobenzenesulfonamide]	18 µM	
	O=S(=O)(NCCCN1c2ccccc2CCc2ccc(Cl)cc21)c1ccc(OC(F)(F)F)cc1 [Example 30, N-(3-(3-chloro-10,11-dihydro-5H-dibenzo[b,f]azepin-5-yl)propyl)-4-(trifluoromethoxy)benzenesulfonamide]		decrease in tumor volume over two week treatment period (EGFR-L858R/CCSP mice): 60%; graft survival [3]: 18 days
	O=C(CCCN1CCC(O)(c2ccc(Cl)cc2)CC1)c1ccc(F)cc1 [Haloperidol]		fold increase in iTreg over control (DMSO) wells (CD4 naïve cells): did not induce a statistically significant increase
	O=S(=O)(N[C@H]1CCC[C@@H](N2c3ccccc3CCc3ccccc32)C1)c1ccc(OC(F)(F)F)cc1 (relative stereo) [Example 73 cis, cis-N-(3-(10,11-dihydro-5H-dibenzo[b,f]azepin-5-yl)cyclohexyl)-4-(trifluoromethoxy)benzenesulfonamide]	5 µM	
20 µM	O=S(=O)(NCCCN1c2ccccc2CCc2cccnc21)c1ccc(OC(F)(F)F)cc1 [Example 100, N-(3-(5H-Benzo[b]pyrido[3,2-f]azepin-11(6H)-yl)propyl)-4-(trifluoromethoxy)benzenesulfonamide]		
	O=S(=O)(NCCC=C1c2ccccc2Sc2ccccc21)c1ccc(OC(F)(F)F)cc1 [Example 50, N-(3-(9H-thioxanthen-9-ylidene)propyl)-4-(trifluoromethoxy)benzenesulfonamide]	~15 µM	
	O=S(=O)(NCCCN1c2ccccc2CCc2ccc(Cl)cc21)c1ccc(Cl)cc1F [Example 28, N-(3-(3-chloro-10,11-dihydro-5H-dibenzo[b,f]azepin-5-yl)propyl)-4-chloro-2-fluorobenzenesulfonamide]		IC50 (μM), Cell Viability Data (H1650 lung cancer cells [1]; MTT, 48 h after drug treatment, examples up to number 80 taken from PCT WO2013/025882): INACTIVE

— US9796717B2, “Tricyclic heterocycles as anticancer agents” (ICAHN SCHOOL OF MEDICINE AT MOUNT SINAI, priority 2013, dated 2017)
